Experimental data as given in patent US6436948B1, “Method for the treatment of psoriasis and genital warts” (priority 1995, dated 2002).

Key:
Assay type in all cases: cell-based
[1] = test system: KB nasopharyngeal carcinoma cell line; assay: In vitro cytotoxicity, methylene blue assay / cell count: KB; details: three generations, mean ± standard deviation of five experiments, read-out: ID50 (the source's name)
[2] = test system: DU-145 prostate carcinoma line; assay: In vitro cytotoxicity, methylene blue assay / cell count: DU-145; details: three generations, mean ± standard deviation of five experiments, read-out: ID50 (the source's name)
[3] = test system: PC-3 prostate carcinoma line; assay: In vitro cytotoxicity, methylene blue assay / cell count: PC-3; details: three generations, mean ± standard deviation of five experiments, read-out: ID50 (the source's name)
HepG2 cells = assay: In vitro cytotoxicity, methylene blue assay / cell count: HepG2; details: three generations, mean ± standard deviation of five experiments, read-out: ID50 (the source's name)
2.2.15 line = assay: In vitro cytotoxicity, methylene blue assay / cell count: 2.2.15; details: three generations, mean ± standard deviation of five experiments, read-out: ID50 (the source's name)
Protocol: Cells in logarithmic growth were plated at a density of 5000 cells/mL/well in 24-well plates. Drugs were added to the cells at different dosages and cultures were maintained for a period of three generations. At the end of this time, methylene blue assays were performed and/or cell numbers were directly counted. […] IC50 values were determined by interpolation of the plotted data. Each value shown is the mean± standard deviation of five experiments with each data point done in duplicate.
HepG2 cells originate from hepatocellular carcinoma and the 2.2.15 line is derived from HepG2 cells which were transfected with a copy of the hepatitis B virus genome.

CEM cells = assay: In vitro cytotoxicity, methylene blue assay / cell count: CEM; details: three generations, mean ± standard deviation of five experiments, read-out: ID50 (the source's name)
tumor cell lines tested = assay: In vitro cytotoxicity, statement on all tumor cell lines tested; details: all of the tumor cell lines tested

O=c1ccn(C2COC(CO)O2)c(=O)[nH]1 (single isomer, unassigned; (-)) [(−)-OddU]
> 30 µM: IC50 [1] | IC50 [2] | IC50 [3] | IC50 (HepG2 cells) | IC50 (2.2.15 line) | IC50 (CEM cells)
not toxic: Cytotoxicity in words (tumor cell lines tested)
